In patent US11084814B2, “Pyrido[3, 4-d]pyrimidine derivative and pharmaceutically acceptable salt thereof” (Teijin Pharma Limited, priority 2016, dated 2021):
pIC50: −log10 of the molar value.

How the values were obtained:
[1] = tested on: neuronal death caused by local ischemia; settings: rat cerebral infarction model; cited from earlier work
CDK4/cyclin D3 = molecular target: T1, CDK4/cyclin D3 (Homo sapiens, UniProt P11802); test: Human CDK4/cyclin D3 inhibitory activity (QS S Assist CDK4/Cyclin D3_FP Kit, IMAP fluorescent polarization); type: biochemical; settings: read-out: CDK4 Activity symbol
T1 construct: purchased Carna Biosciences, Inc. QS S Assist CDK4/Cyclin D3_FP Kit
T1 sequence (P11802 whole entry): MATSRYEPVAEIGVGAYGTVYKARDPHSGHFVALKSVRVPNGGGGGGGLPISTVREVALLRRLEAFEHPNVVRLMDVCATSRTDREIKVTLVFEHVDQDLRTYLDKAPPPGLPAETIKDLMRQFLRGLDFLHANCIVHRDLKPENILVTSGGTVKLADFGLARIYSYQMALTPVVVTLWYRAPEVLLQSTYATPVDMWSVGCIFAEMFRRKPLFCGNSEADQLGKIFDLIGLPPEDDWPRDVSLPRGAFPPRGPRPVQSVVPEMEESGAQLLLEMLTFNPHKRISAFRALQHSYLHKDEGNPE
T1 sequence (P30281 whole entry partner): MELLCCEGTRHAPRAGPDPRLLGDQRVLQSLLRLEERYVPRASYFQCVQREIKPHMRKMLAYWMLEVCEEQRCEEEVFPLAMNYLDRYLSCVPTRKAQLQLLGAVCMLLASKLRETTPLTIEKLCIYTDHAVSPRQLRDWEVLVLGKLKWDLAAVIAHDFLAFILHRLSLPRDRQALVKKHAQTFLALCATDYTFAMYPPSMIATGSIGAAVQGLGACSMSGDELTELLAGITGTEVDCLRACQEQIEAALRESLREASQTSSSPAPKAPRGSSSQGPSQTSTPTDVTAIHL
In short: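 Kinase reactions used kit CDK4/cyclin D3 at 12.5–25 ng/well with the kit ATP/substrate/metal mix in 20 mM HEPES (pH 7.4), 0.01% Tween20 and 2 mM DTT, run 45 min at room temperature. Phosphorylation was detected by IMAP fluorescence polarization (ex 485/em 535 nm) after 30 min binding in the dark. IC50 was fitted from percent inhibition against DMSO controls with and without enzyme.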

CDK2/cyclin A2 = molecular target: T2, CDK2/cyclin A2 (Homo sapiens, UniProt P24941); test: Human CDK2/cyclin A2 inhibitory activity (QS S Assist CDK2/Cyclin A2_FP Kit, IMAP fluorescent polarization); type: biochemical; settings: read-out: CDK2 Activity symbol
T2 construct: purchased Carna Biosciences, Inc. QS S Assist CDK2/Cyclin A2_FP Kit
In short: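 Kit CDK2/cyclin A2 (2.5 ng/well) was reacted with kit ATP/substrate/metal in 20 mM HEPES pH 7.4, 0.01% Tween 20 and 2 mM DTT for 60 min at room temperature. IMAP binding reagent was added for 30 min, then fluorescence polarization was read at 485/535 nm. IC50 came from dose-response fitting of percent inhibition.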

Structure (SMILES)	pIC50 (CDK4/cyclin D3)	pIC50 (CDK2/cyclin A2)	neuronal death [1]
CN1CC[C@H](c2c(O)cc(O)c3c(=O)cc(-c4ccccc4Cl)oc23)[C@H](O)C1 [flavopiridol]			reduced
C[C@@H](O)c1cc2cnc(Nc3ccc(CN4CCN(C)CC4)cn3)nc2c(N2CCC(F)(F)CC2)n1 [Compound 150]	> 8.00	≤ 7.00	
c1cc(Nc2ncc3cc(C4CCOC4)nc(N4C5CCC4CC5)c3n2)ncc1CN1CCNCC1 (centres unmarked) [Compound 205]	> 8.00	≤ 7.00	
C[C@@H](O)c1cc2cnc(Nc3ccc4c(n3)CCN(C(=O)CN3CCN(CCO)CC3)C4)nc2c(N2C3CCC2CC3)n1 [Compound 263]	> 8.00	≤ 7.00	
C[C@@H](O)c1cc2cnc(Nc3ccc(N4CCN(C)CCC4=O)cn3)nc2c(N2CCCCC2)n1 [Compound 121]	> 8.00	≤ 7.00	
Cc1nc(Nc2ncc3cc([C@@H](C)O)nc(N4CCCCC4)c3n2)ccc1N1CCN(CCO)CC1 [Compound 88]	> 8.00	≤ 7.00	
C[C@@H](O)c1cc2cnc(Nc3ccc4c(n3)CCN(C(=O)[C@@H]3C[C@@H](O)CN3C)C4)nc2c(N2C3CCC2CC3)n1 [Compound 227]	> 8.00	≤ 7.00	
CC(O)c1cc2cnc(Nc3ccc(CN4CCN(C)CC4)cn3)nc2c(N2CCCC2C)n1 (centres unmarked) [Compound 136]	> 8.00	≤ 7.00	
OCCc1cc2cnc(Nc3ccc(N4CCNCC4)nn3)nc2c(N2CCCCC2)n1 [Compound 94]	> 8.00	≤ 7.00	
C[C@@H](O)c1cc2cnc(Nc3ccc(CN4CCC(O)CC4)cn3)nc2c(N2CCCCC2)n1 [Compound 65]	> 8.00	≤ 7.00	
C[C@@H](O)c1cc2cnc(Nc3ccc(CN4CCN(C)[C@@H](C)C4)cn3)nc2c(N2C3CCC2CC3)n1 [Compound 189]	> 8.00	≤ 7.00	
CC1CN(c2nc([C@@H](C)O)cc3cnc(Nc4ccc(CN5CCN(C)CC5)cn4)nc23)CC1C (some centres unmarked) [Compound 141]	> 8.00	≤ 7.00	
c1cc(N2CCNCC2)nnc1Nc1ncc2cc(C3CCOC3)nc(N3C4CCC3CC4)c2n1 (centres unmarked) [Compound 207]	> 8.00	≤ 7.00	
C[C@@H](O)c1cc2cnc(Nc3ccc4c(n3)CCN(C(=O)CN3CC[C@@H](F)C3)C4)nc2c(N2C3CCC2CC3)n1 [Compound 231]	> 8.00	≤ 7.00	
CN1CCN(c2ccc(Nc3ncc4cc(CO)nc(N5CCCCC5=O)c4n3)nc2)CC1 [Compound 3]	≤ 7.00	≤ 7.00	
C[C@@H](O)c1cc2cnc(Nc3ccc(CN4CCN(C)CC4)cn3)nc2c(N2CCC[C@H](F)C2)n1 [Compound 179]	> 8.00	≤ 7.00	

Structure (SMILES)	pIC50 (CDK4/cyclin D3)	pIC50 (CDK2/cyclin A2)	neuronal death [1]
C[C@@H](O)c1cc2cnc(Nc3ccc4c(n3)CCN(C(=O)C3CCN(C)CC3)C4)nc2c(N2CCCCC2)n1 [Compound 149]	> 8.00	≤ 7.00	
C[C@@H](O)c1cc2cnc(Nc3ccc4c(n3)CCN(CCO)C4)nc2c(N2CCCCC2)n1 [Compound 111]	> 8.00	≤ 7.00	
C[C@@H](O)c1cc2cnc(Nc3ccc(N4CCNCC4)nn3)nc2c(N2CCCC2C(=O)O)n1 (some centres unmarked) [Compound 39]	> 8.00	≤ 7.00	
CN(C)CCN1CCc2nc(Nc3ncc4cc(CCO)nc(N5CCCCC5)c4n3)ccc2C1 [Compound 110]	> 8.00	≤ 7.00	
C[C@@H](O)Cc1cc2cnc(Nc3ccc4c(n3)CCN(CCO)C4)nc2c(N2CCCCC2)n1 [Compound 170]	7.00 to 8.00	≤ 7.00	
CC(O)c1cc2cnc(Nc3ccc(N4CCNCC4=O)cn3)nc2c(N2C3CCC2COC3)n1 (centres unmarked) [Compound 301]	7.00 to 8.00	≤ 7.00	
C[C@@H](O)c1cc2cnc(Nc3ccc(CN4CCN(CCO)CC4)cn3)nc2c(N2CCC(C)(C)C2)n1 [Compound 102]	> 8.00	≤ 7.00	
C[C@@H](O)c1cc2cnc(Nc3ccc(CN4CCNCC4)cn3)nc2c(N2CCCC2C(=O)O)n1 (some centres unmarked) [Compound 42]	≤ 7.00	≤ 7.00	
C[C@@H](O)Cc1cc2cnc(Nc3ccc(N4CCNCC4=O)cn3)nc2c(N2CCCCC2)n1 [Compound 169]	7.00 to 8.00	≤ 7.00	
C[C@@H](O)c1cc2cnc(Nc3ccc4c(n3)CCN(C(=O)CN3CC(O)C3)C4)nc2c(N2C3CCC2CC3)n1 [Compound 229]	> 8.00	≤ 7.00	
C[C@@H](CO)c1cc2cnc(Nc3ccc4c(n3)CCN(CCO)C4)nc2c(N2CCCCC2)n1 [Compound 171]	7.00 to 8.00	≤ 7.00	
C[C@@H](O)c1cc2cnc(Nc3ccc(CN4CCN(CCO)CC4)cn3)nc2c(N2CCC(C(=O)O)CC2)n1 [Compound 76]	> 8.00	≤ 7.00	
C[C@@H](O)c1cc2cnc(Nc3ccc(CN4CCC(O)CC4)cn3)nc2c(N2CCCC2)n1 [Compound 66]	7.00 to 8.00	≤ 7.00	
NC(=O)c1cc2cnc(Nc3ccc(N4CCNCC4)cn3)nc2c(N2CCCCC2)n1 [Compound 28]	7.00 to 8.00	≤ 7.00	
C[C@@H](O)c1cc2cnc(Nc3ccc(CN4CCN(C)CC4)cn3)nc2c(N2CCC2)n1 [Compound 172]	7.00 to 8.00	≤ 7.00	

Now from value to compound, other results behind:

pIC50 (CDK4/cyclin D3)	pIC50 (CDK2/cyclin A2)	Structure (SMILES)	neuronal death [1]
> 8.00	≤ 7.00	Cc1nc(Nc2ncc3cc([C@@H](C)O)nc(N4CC[C@H](C)C4)c3n2)ccc1N1CCNCC1=O [Compound 261]	
> 8.00	≤ 7.00	C[C@@H](O)c1cc2cnc(Nc3ccc4c(n3)CCN(C(=O)CN3CC5(COC5)C3)C4)nc2c(N2CCCCC2)n1 [Compound 266]	
> 8.00	≤ 7.00	C[C@@H](O)c1cc2cnc(Nc3ccc(N4CCNCC4)cn3)nc2c(N2CCOC[C@@H]2C)n1 [Compound 288]	
> 8.00	≤ 7.00	CC[C@H](O)c1cc2cnc(Nc3ccc(N4CCNCC4=O)cn3)nc2c(N2CCC[C@H]2C)n1 [Compound 246]	
> 8.00	≤ 7.00	C[C@@H](O)c1cc2cnc(Nc3ccc(C(=O)N4CCN(C)CC4)cn3)nc2c(N2CCCC2)n1 [Compound 318]	
> 8.00	≤ 7.00	C[C@@H](CO)c1cc2cnc(Nc3ccc(N4CCNCC4=O)cn3)nc2c(N2CCCCC2)n1 [Compound 194]	
> 8.00	≤ 7.00	C[C@@H](O)c1cc2cnc(Nc3ccc4c(n3)CCN(C(=O)[C@@H]3CCCNC3)C4)nc2c(N2CCCCC2)n1 [Compound 214]	
> 8.00	≤ 7.00	C[C@@H](O)c1cc2cnc(Nc3ccc4c(n3)CCN(C(=O)CN3CC(F)C3)C4)nc2c(N2CCCCC2)n1 [Compound 269]	
7.00 to 8.00	≤ 7.00	C[C@@H](O)c1cc2cnc(Nc3ccc4c(n3)CCN(CC#N)C4)nc2c(N2CCCCC2)n1 [Compound 196]	
> 8.00	≤ 7.00	C[C@@H](O)c1cc2cnc(Nc3ccc4c(n3)CCN(C(=O)CN3CCC3)C4)nc2c(N2CCCCC2)n1 [Compound 270]	
> 8.00	≤ 7.00	C[C@@H](O)c1cc2cnc(Nc3ccc(N4CCNCC4=O)cn3)nc2c(N2CCC(C#N)CC2)n1 [Compound 272]	
> 8.00	≤ 7.00	C[C@@H](O)c1cc2cnc(Nc3ccc4c(n3)CCN(C(=O)[C@H]3CCNC3)C4)nc2c(N2CCCCC2)n1 [Compound 210]	
> 8.00	≤ 7.00	C[C@@H](O)c1cc2cnc(Nc3ccc(N4CCN(CCS(C)(=O)=O)CCC4=O)cn3)nc2c(N2CCCCC2)n1 [Compound 259]	
> 8.00	≤ 7.00	C[C@@H](O)c1cc2cnc(Nc3ccc(O[C@H]4CCCNC4)cn3)nc2c(N2CCCCC2)n1 [Compound 241]	
